Literature values in patent US5690961A, “Acidic polysaccharides crosslinked with polycarboxylic acids and their uses” (Hercules Incorporated, priority 1994, dated 1997).

Settings: in vivo

half-life of hyaluronic acid injected in a joint: about 13 hours
Substance: hyaluronic acid
